In patent US20260028326A1, “COMPOUND BASED ON ISOINDOLINE-SUBSTITUTED GLUTARIMIDE BACKBONE AND USE THEREOF” (GLUETACS THERAPEUTICS (SHANGHAI) CO., LTD., priority 2022, published 2026):

Assays:
GSPT1 protein = GSPT1 protein (Homo sapiens (Human), UniProt P15170+Q96SW2); experiment: Western-blot assay of substrate protein degradation in hPBMC, GSPT1; type: cell-based; conditions: hPBMC cells, compound 500 nM, 24 hours, Western blot
IKZF1 protein = IKZF1 protein (Homo sapiens (Human), UniProt Q13422+Q96SW2); experiment: Western-blot assay of substrate protein degradation in hPBMC, IKZF1; type: cell-based; conditions: hPBMC cells, compound 500 nM, 24 hours, Western blot
[1] = target: human Cereblon WT GST-tagged protein (Homo sapiens (Human), UniProt Q96SW2); experiment: CRBN-binding affinity, HTRF (CEREBLON BINDING kit)
Outline: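 GST-tagged human WT Cereblon incubated with compound, then Thalidomide-Re tracer and anti-GST Eu antibody added. Displacement read by HTRF, reported as CRBN binding inhibition rate against blank control wells without protein.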

IKZF3 protein = IKZF3 protein (Homo sapiens (Human), UniProt Q96SW2+Q9UKT9); experiment: Western-blot assay of substrate protein degradation in hPBMC, IKZF3; type: cell-based; conditions: hPBMC cells, compound 500 nM, 24 hours, Western blot
Daudi cells = experiment: Tumor cell proliferation IC50 (CCK-8), Daudi; conditions: Homo sapiens, read-out: IC50 for inhibiting the proliferation of tumor cells, Daudi;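 also: cell viability read with CCK-8 reagent after compound exposure of Daudi cells, IC50 derived from plotted growth inhibition curves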
Mino cells = experiment: Tumor cell proliferation IC50 (CCK-8), Mino; conditions: Homo sapiens, 72 h, read-out: IC50 for inhibiting the proliferation of tumor cells, Mino;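 also: cell viability assessed with CCK-8 reagent after compound exposure, IC50 derived from plotted growth inhibition curves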
Method: (§1) The tumor cells used herein were cultured in a cell culture medium listed in table A at 37° C. in an incubator with 5% CO2.
(§2) After the cells were treated with the compounds of the present disclosure for a period of time, the cell viability detection reagent was added to the culture medium for cell viability assessment according to the instructions provided with the CCK-8 kit. […] The growth inhibition of the compounds of the present disclosure on cells was plotted by Prism Graphpad software, and the IC50 values of the compounds of the present disclosure were calculated therefrom.

MM.1S cells = experiment: Tumor cell proliferation IC50 (CCK-8), MM.1S; conditions: Homo sapiens, MM1.S, 72 h, read-out: IC50 for inhibiting the proliferation of tumor cells, MM.1S;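 also: viability of cultured cells read by CCK-8 reagent after compound exposure, growth inhibition curves fitted to derive IC50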
Method: as §1, §2

CCRF-CEM cells = experiment: Tumor cell proliferation IC50 (CCK-8), CCRF-CEM; conditions: Homo sapiens, 96 h, read-out: IC50 for inhibiting the proliferation of tumor cells, CCRF-CEM;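 also: cell viability measured with CCK-8 reagent after compound treatment, IC50 taken from plotted growth inhibition curves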

Chain of IKZF1 protein (Q13422 whole entry): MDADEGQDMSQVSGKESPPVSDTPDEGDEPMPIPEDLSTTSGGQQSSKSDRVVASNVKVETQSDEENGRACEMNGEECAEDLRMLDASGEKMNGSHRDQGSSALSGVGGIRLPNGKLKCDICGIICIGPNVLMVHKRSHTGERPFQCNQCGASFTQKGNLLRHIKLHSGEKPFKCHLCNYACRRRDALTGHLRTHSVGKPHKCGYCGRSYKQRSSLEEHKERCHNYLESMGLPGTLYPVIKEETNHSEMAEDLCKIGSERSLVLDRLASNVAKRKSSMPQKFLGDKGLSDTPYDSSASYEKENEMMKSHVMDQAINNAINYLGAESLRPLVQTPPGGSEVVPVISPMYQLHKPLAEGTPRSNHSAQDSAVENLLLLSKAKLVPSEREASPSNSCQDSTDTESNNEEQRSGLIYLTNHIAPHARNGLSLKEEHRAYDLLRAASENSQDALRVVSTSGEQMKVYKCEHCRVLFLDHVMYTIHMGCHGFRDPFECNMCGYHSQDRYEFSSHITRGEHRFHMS
Chain of IKZF1 protein (Q96SW2 whole entry): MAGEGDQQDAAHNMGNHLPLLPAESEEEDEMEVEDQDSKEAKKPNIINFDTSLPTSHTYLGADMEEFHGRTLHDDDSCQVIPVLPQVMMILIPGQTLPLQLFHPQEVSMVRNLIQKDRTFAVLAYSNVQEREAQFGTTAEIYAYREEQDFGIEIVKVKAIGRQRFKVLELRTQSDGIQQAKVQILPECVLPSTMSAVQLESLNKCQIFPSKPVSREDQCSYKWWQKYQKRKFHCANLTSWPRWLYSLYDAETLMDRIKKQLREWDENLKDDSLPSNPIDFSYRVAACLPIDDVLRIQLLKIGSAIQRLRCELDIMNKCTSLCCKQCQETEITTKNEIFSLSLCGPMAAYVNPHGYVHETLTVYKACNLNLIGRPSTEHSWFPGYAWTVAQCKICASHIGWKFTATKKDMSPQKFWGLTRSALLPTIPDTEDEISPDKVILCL
Chain of IKZF1 protein (Q16531 whole entry partner): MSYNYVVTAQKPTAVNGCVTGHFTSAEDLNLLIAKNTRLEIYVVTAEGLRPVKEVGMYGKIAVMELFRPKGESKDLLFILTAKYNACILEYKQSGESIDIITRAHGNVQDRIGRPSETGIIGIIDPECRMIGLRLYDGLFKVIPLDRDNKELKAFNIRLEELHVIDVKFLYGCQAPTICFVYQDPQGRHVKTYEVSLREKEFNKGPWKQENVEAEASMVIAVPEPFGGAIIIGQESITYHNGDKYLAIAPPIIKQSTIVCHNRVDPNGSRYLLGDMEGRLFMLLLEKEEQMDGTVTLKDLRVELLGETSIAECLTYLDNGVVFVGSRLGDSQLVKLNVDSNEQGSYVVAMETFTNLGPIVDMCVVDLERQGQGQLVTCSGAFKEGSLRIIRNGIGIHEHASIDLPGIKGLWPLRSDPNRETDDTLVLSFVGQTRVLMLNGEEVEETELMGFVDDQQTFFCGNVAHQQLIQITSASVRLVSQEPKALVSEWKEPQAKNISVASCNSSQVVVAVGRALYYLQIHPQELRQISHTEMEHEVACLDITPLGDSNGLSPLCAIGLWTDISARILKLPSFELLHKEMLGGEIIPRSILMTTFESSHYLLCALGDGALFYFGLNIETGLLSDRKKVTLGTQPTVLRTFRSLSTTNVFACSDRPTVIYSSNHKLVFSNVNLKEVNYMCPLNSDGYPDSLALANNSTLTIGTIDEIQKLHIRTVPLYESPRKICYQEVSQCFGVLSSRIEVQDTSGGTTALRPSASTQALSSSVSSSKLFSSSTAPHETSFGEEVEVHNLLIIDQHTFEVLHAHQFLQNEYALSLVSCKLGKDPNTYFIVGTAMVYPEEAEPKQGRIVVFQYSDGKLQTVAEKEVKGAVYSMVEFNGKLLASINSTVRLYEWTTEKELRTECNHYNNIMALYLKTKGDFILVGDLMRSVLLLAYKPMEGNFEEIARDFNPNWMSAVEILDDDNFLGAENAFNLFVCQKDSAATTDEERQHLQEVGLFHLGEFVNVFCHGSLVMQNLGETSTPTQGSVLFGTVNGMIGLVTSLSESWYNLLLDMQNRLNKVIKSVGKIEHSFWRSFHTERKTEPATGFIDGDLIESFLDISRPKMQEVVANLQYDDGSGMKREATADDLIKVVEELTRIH
Chain of human Cereblon WT GST-tagged protein (Q96SW2 whole entry): as the sequence (Q96SW2 whole entry) above
Chain of IKZF3 protein (Q9UKT9 whole entry): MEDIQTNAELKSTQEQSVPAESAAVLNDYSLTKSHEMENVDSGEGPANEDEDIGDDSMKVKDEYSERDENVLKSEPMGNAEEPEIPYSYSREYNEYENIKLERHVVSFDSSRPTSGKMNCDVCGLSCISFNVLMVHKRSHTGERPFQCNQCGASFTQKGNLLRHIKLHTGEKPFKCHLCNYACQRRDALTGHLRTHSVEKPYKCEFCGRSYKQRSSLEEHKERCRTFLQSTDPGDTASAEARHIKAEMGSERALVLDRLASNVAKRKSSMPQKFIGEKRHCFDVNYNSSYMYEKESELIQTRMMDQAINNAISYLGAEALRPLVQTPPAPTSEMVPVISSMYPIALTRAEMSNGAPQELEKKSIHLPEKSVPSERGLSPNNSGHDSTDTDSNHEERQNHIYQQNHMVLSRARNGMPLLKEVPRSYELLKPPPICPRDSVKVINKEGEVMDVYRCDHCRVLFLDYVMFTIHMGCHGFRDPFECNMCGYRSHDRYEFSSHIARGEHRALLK
Chain of IKZF3 protein (Q96SW2 whole entry): as the sequence (Q96SW2 whole entry) above
Chain of IKZF3 protein (Q16531 whole entry partner): as the sequence (Q16531 whole entry partner) above
Chain of GSPT1 protein (P15170 whole entry): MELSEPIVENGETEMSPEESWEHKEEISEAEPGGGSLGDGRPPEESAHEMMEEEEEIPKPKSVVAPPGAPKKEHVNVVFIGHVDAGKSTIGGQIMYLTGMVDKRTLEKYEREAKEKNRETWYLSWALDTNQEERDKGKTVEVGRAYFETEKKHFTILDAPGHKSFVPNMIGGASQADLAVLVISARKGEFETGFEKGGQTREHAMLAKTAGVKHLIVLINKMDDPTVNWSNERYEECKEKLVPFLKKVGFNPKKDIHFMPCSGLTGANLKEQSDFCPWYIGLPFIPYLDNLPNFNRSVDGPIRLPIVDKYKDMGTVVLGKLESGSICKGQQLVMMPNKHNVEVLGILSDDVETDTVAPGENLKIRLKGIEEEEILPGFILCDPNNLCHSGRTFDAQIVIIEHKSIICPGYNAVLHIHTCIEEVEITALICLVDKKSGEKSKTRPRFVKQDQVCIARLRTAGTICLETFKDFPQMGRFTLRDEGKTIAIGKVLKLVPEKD
Chain of GSPT1 protein (Q96SW2 whole entry): as the sequence (Q96SW2 whole entry) above
Chain of GSPT1 protein (Q16531 whole entry partner): as the sequence (Q16531 whole entry partner) above

SMILES	residual substrate protein level, GSPT1 (GSPT1 protein)	residual substrate protein level, IKZF1 (IKZF1 protein)	IC50 [1] [nM]	residual substrate protein level, IKZF3 (IKZF3 protein)	IC50 (Daudi cells) [nM]	IC50 (Mino cells) [nM]	IC50 (MM.1S cells) [nM]	IC50 (CCRF-CEM cells) [nM]
O=C1CCC(N2Cc3cc(CN4CCN(Cc5ccc(-c6cccs6)s5)CC4)ccc3C2=O)C(=O)N1 (stereo not shown) [GT-05624, 3-(5-((4-([2,2′-bithiophen]-5-ylmethyl)piperazin-1-yl)methyl)-1-oxoisoindolin-2-yl)piperidine-2,6-dione]	B (B represents a residual substrate protein level of >50%)	A (A represents a residual substrate protein level of <50%)	470	A (A represents a residual substrate protein level of <50%)	500 to 1000	10 to 50	100 to 500	–
O=C1CCC(N2Cc3cc(CN4CCN(Cc5ccc(-c6ccco6)cc5)CC4)ccc3C2=O)C(=O)N1 (stereo not shown) [GT-05693, 3-(5-((4-(4-(furan-2-yl)benzyl)piperazin-1-yl)methyl)-1-oxoisoindolin-2-yl)piperidine-2,6-dione]	B (B represents a residual substrate protein level of >50%)	B (B represents a residual substrate protein level of >50%)	310	A (A represents a residual substrate protein level of <50%)	500 to 1000	10 to 50	100 to 500	–
Cn1cccc1-c1ccccc1CN1CCN(Cc2ccc3c(c2)CN(C2CCC(=O)NC2=O)C3=O)CC1 (stereo not shown) [GT-05683, 3-(5-((4-(2-(1-methyl-1H-pyrrol-2-yl)benzyl)piperazin-1-yl)methyl)-1-oxoisoindolin-2-yl)piperidine-2,6-dione]	–	–	750	–	50 to 100	10 to 50	5 to 10	5 to 10
CC1(C)CC(c2ccc(Cl)cc2)=C(CN2CCN(Cc3ccc4c(c3)CN(C3CCC(=O)NC3=O)C4=O)CC2)CO1 (stereo not shown) [GT-05672, 3-(5-((4-((4-(4-chlorophenyl)-6,6-dimethyl-5,6-dihydro-2H-pyran-3-yl)methyl)piperazin-1-yl)methyl)-1-oxoisoindolin-2-yl)piperidine-2,6-dione]	A (A represents a residual substrate protein level of <50%)	A (A represents a residual substrate protein level of <50%)	580	A (A represents a residual substrate protein level of <50%)	500 to 1000	10 to 50	10 to 50	–
O=C1CCC(N2Cc3cc(CN4CCN(Cc5cnccc5-c5ccc(Cl)cc5)CC4)ccc3C2=O)C(=O)N1 (stereo not shown) [GT-05703, 3-(5-((4-((4-(4-chlorophenyl)pyridin-3-yl)methyl)piperazin-1-yl)methyl)-1-oxoisoindolin-2-yl)piperidine-2,6-dione]	B (B represents a residual substrate protein level of >50%)	A (A represents a residual substrate protein level of <50%)	530	A (A represents a residual substrate protein level of <50%)	100 to 500	10 to 50	5 to 10	–
O=C1CCC(N2Cc3cc(CN4CCN(Cc5ccc(-c6ccco6)s5)CC4)ccc3C2=O)C(=O)N1 (stereo not shown) [GT-05780, 3-(5-((4-((5-(furan-2-yl)thiophen-2-yl)methyl)piperazin-1-yl)methyl)-1-oxoisoindolin-2-yl)piperidine-2,6-dione]	A (A represents a residual substrate protein level of <50%)	A (A represents a residual substrate protein level of <50%)	230	A (A represents a residual substrate protein level of <50%)	100 to 500	5 to 10	500 to 1000	–
CC1(C)CCC(CN2CCN(Cc3ccc4c(c3)CN(C3CCC(=O)NC3=O)C4=O)CC2)=C(c2cncs2)C1 (stereo not shown) [GT-05791, 3-(5-((4-((4,4-dimethyl-2-(thiazol-5-yl)cyclohex-1-en-1-yl)methyl)piperazin-1-yl)methyl)-1-oxoisoindolin-2-yl)piperidine-2,6-dione]	B (B represents a residual substrate protein level of >50%)	A (A represents a residual substrate protein level of <50%)	730	A (A represents a residual substrate protein level of <50%)	500 to 1000	10 to 50	10 to 50	–
O=C1CCC(N2C(=O)c3ccc(CN4CCN(Cc5ccc(-c6ccc(Cl)cc6)s5)CC4)cc3C2=O)C(=O)N1 (stereo not shown) [GT-05626, 5-((4-((5-(4-chlorophenyl)thiophen-2-yl)methyl)piperazin-1-yl)methyl)-2-(2,6-dioxopiperidin-3-yl)isoindoline-1,3-dione]	B (B represents a residual substrate protein level of >50%)	B (B represents a residual substrate protein level of >50%)	–	B (B represents a residual substrate protein level of >50%)	500 to 1000	500 to 1000	–	500 to 1000
O=C1CCC(N2Cc3c(ccc(CN4CCN(CC5=C(c6ccc(F)cc6)CCCC5)CC4)c3F)C2=O)C(=O)N1 (stereo not shown) [GT-05466, 3-(4-fluoro-5-((4-((4′-fluoro-3,4,5,6-tetrahydro-[1,1′-biphenyl]-2-yl)methyl)piperazin-1-yl)methyl)-1-oxoisoindolin-2-yl)piperidine-2,6-dione]	A (A represents a residual substrate protein level of <50%)	A (A represents a residual substrate protein level of <50%)	700	A (A represents a residual substrate protein level of <50%)	50 to 100	10 to 50	10 to 50	–
O=C1CCC(N2Cc3cc(CN4CCN(Cc5ccc(-c6ccncc6)nc5)CC4)ccc3C2=O)C(=O)N1 (stereo not shown) [GT-05633, 3-(5-((4-([2,4′-bipyridin]-5-ylmethyl)piperazin-1-yl)methyl)-1-oxoisoindolin-2-yl)piperidine-2,6-dione]	B (B represents a residual substrate protein level of >50%)	A (A represents a residual substrate protein level of <50%)	760	A (A represents a residual substrate protein level of <50%)	100 to 500	< 5	–	–
O=C1CCC(N2Cc3cc(NC4CCN(C(=O)c5ccccc5-c5ccc(Cl)cc5)CC4)ccc3C2=O)C(=O)N1 (stereo not shown) [GT-05784, 3-(5-((1-(4′-chloro-[1,1′-biphenyl]-2-carbonyl)piperidin-4-yl)amino)-1-oxoisoindolin-2-yl)piperidine-2,6-dione]	–	–	620	–	10 to 50	< 5	< 5	< 5
O=C1CCC(N2Cc3cc(CN4CC5(C4)CN(Cc4ccccc4-c4ccc(Cl)cc4)C5)ccc3C2=O)C(=O)N1 (stereo not shown) [GT-05709, 3-(5-((6-((4′-chloro-[1,1′-biphenyl]-2-yl)methyl)-2,6-diazaspiro[3.3]heptan-2-yl)methyl)-1-oxoisoindolin-2-yl)piperidine-2,6-dione]	A (A represents a residual substrate protein level of <50%)	A (A represents a residual substrate protein level of <50%)	660	A (A represents a residual substrate protein level of <50%)	–	50 to 100	10 to 50	10 to 50
Cc1ccc(C2=C(CN3CCN(Cc4ccc5c(c4)CN(C4CCC(=O)NC4=O)C5=O)CC3)CCC(C)(C)C2)cc1 (stereo not shown) [GT-05792, 3-(1-oxo-5-((4-((4′,5,5-trimethyl-3,4,5,6-tetrahydro-[1,1′-biphenyl]-2-yl)methyl)piperazin-1-yl)methyl)isoindolin-2-yl)piperidine-2,6-dione]	–	–	660	–	50 to 100	5 to 10	5 to 10	5 to 10
O=C1CCC(N2Cc3cc(CN4CCN(Cc5ccc(-c6ccc(Cl)cc6)nc5)CC4)ccc3C2=O)C(=O)N1 (stereo not shown) [GT-05632, 3-(5-((4-((6-(4-chlorophenyl)pyridin-3-yl)methyl)piperazin-1-yl)methyl)-1-oxoisoindolin-2-yl)piperidine-2,6-dione]	–	–	720	–	10 to 50	< 5	100 to 500	–
O=C1CCC(N2Cc3cc(CN4CCN(Cc5ccc(-c6ccc(Cl)cc6)s5)CC4)ccc3C2=O)C(=O)N1 (stereo not shown) [GT-05625, 3-(5-((4-((5-(4-chlorophenyl)thiophen-2-yl)methyl)piperazin-1-yl)methyl)-1-oxoisoindolin-2-yl)piperidine-2,6-dione]	B (B represents a residual substrate protein level of >50%)	B (B represents a residual substrate protein level of >50%)	1670	B (B represents a residual substrate protein level of >50%)	100 to 500	50 to 100	100 to 500	–
